In US20240066085A1, “MATRIX METALLOPROTEASE 1 EXPRESSION INHIBITOR, SKIN EXTERNAL AGENT, AND USE FOR INHIBITION OF MATRIX METALLOPROTEASE 1 EXPRESSION” (NATIONAL UNIVERSITY CORPORATION KOBE UNIVERSITY, priority 2020, published 2024):

Key:
[1] = test system: ERK and MEK phosphorylation; test: UVA-induced phosphorylation of ERK and MEK in HaCaT after PKCδ inhibitor pretreatment; format: cell-based, human; conditions: HaCaT pretreated with PKCδ inhibitor, then UVA irradiation
Protocol: (§1) The present inventors clarified an expression mechanism of MMP-1 through an experiment. […] The experiment was performed by irradiating HaCaT (epidermal keratinocyte cell line established from a human adult under special ca 2+ concentration and temperature conditions) with ultraviolet rays (UVA).
However, when a pretreatment of adding rotterlin being a PKCδ inhibitor to HaCaT was performed, and then UVA irradiation was performed on HaCaT, induced expression of phosphorylation of ERK and MEK was suppressed. Therefore, it was clarified that: the activity of PKCδ induces phosphorylation of MEK and ERK downstream of PKC6; and expression of MMP-1 is promoted through c-Jun and the like.

[2] = test system: MMP-1 expression; test: UVA-induced MMP-1 expression in HaCaT after PKCδ inhibitor pretreatment; format: cell-based, human; conditions: HaCaT pretreated with PKCδ inhibitor, then UVA irradiation
Protocol: as §1
When UVA irradiation is performed on HaCaT, the MMP-1 expression amount increases in an irradiation-dependent manner. […] Therefore, it was clarified that PKCδ is involved in expression pathway of MMP-1.

CC(=O)c1c(O)c(C)c(O)c(Cc2c(O)c3c(c(C(=O)/C=C/c4ccccc4)c2O)OC(C)(C)C=C3)c1O [rotterlin]
induced expression of phosphorylation of ERK and MEK [1]: suppressed | MMP-1 expression [2]: significantly suppressed
